How the values were obtained:
[1] = molecular target: Scenedesmus HPPD (Seq ID: 2) (Tetradesmus obliquus, UniProt A0A383WMN4, N195D); assay: In vitro HPPD activity assay; type: biochemical; conditions: for TI (normalized tolerance index): normalized on Arabidopsis wild-type HPPD (SEQ ID NO:42)
Procedure: (§1) HPPD produces homogentisic acid and CO2 from 4-hydroxyphenylpyruvate (4-HPP) and O2. The activity assay for HPPD is based on the analysis of homogentisic acid by reversed phase HPLC.
(§2) The assay mixture can contain 150 mM potassium phosphate buffer pH 7.0, 50 mM L-ascorbic acid, 100 μM Catalase (Sigma-Aldrich), 1 μM FeSO4 and 0.2 units of purified mutated HPPD enzyme in a total volume of 505 μl. 1 unit is defined as the amount of enzyme that is required to produce 1 nmol of HGA per minute at 20° C.
(§3) After a preincubation of 30 min the reaction is started by adding 4-HPP to a final concentration of 0.05 mM. The reaction is allowed to proceed for 45 min at room temperature. The reaction is stopped by the addition of 50 μl of 4.5 M phosphoric acid. The sample is filtered using a […] pore size PVDF filtration device.
(§4) 5 μl of the cleared sample is analyzed on an UPLC HSS T3 column (particle size 1.8 μm, dimensions 2.1×50 mm; Waters) by isocratic elution using 90% 20 mM NaH2PO4 pH 2.2, 10% methanol (v/v).
(§5) HGA is detected electrochemically at 750 mV (mode: DC; polarity: positive) and quantified by integrating peak areas (Empower software; Waters).
(§6) Inhibitors are dissolved in DMSO (dimethylsulfoxide) to a concentration of 0.5 mM. From this stock solution serial five-fold dilutions are prepared in DMSO, which are used in the assay. The respective inhibitor solution accounts for 1% of the assay volume. Thus, final inhibitor concentrations range from 5 μM to 320 pM, respectively. Activities are normalized by setting the uninhibited enzyme activity to 100%. IC50 values are calculated using non-linear regression.
(§7) Using methods which are described in the above examples or well known in the art, purified, recombinant mutated HPPD enzymes are characterized with respect to their kinetic properties and sensitivity towards HPPD inhibiting herbicides. Apparent michaelis constants (Km) and maximal reaction velocities (Vmax) are calculated by non-linear regression with the software GraphPad Prism 5 (GraphPad Software, La Jolla, USA) using a substrate inhibition model. Apparent kcat values are calculated from Vmax assuming 100% purity of the enzyme preparation. Weighted means (by standard error) of Km and IC50 values are calculated from at least three independent experiments. The Cheng-Prusoff equation for competitive inhibition (Cheng, Y. C.; Prusoff, W. H. Biochem Pharmacol 1973, 22, 3099-3108) is used to calculate dissociation constants (Ki).
(§8) Field performance of the HPPD enzyme, which is used as a herbicide tolerance trait may depend not only on its lack of sensitivity towards HPPD inhibiting herbicides but also on its activity. To assess the potential performance of a herbicide tolerance trait a tolerance index (TI) is calculated using the following formula: […]
(§9) Easy comparison and ranking of each trait is enabled by normalizing tolerance indexes on Arabidopsis wild-type HPPD.

[2] = molecular target: Scenedesmus Short HPPD (Seq ID: 4) (Tetradesmus obliquus, UniProt A0A383WMN4, DEL398-433/N195D); assay: In vitro HPPD activity assay; type: biochemical; conditions: for TI (normalized tolerance index): normalized on Arabidopsis wild-type HPPD (SEQ ID NO:42)
Procedure: as §1, §2, §3, §4, §5, §6, §7, §8, §9

[3] = system: T2 Arabidopsis plants expressing mutated variants of Scenedesmus HPPD (all traits and events); assay: Greenhouse spray test, injury evaluation; type: in vivo, Arabidopsis thaliana; conditions: for leaf damage: two lowest application rates (1.56 g/ha and 6.25 g/ha)
Procedure: (§10) Non-transgenic control plants were treated in parallel and pictures taken 14 days after treatment.
(§11) For post emergence treatment, the test plants are first grown to a height of 3 to 15 cm, depending on the plant habit, and only then treated with the herbicides. For this purpose, the test plants are either sown directly and grown in the same containers, or they are first grown separately and transplanted into the test containers a few days prior to treatment.
(§12) Additionally, T1 and T2 transgenic Arabidopsis plants can be tested for improved tolerance to HPPD-inhibiting herbicides in greenhouse studies. Herbicide injury scoring is done 2-3 weeks after treatment and is rated on a scale of 0 to 100%, 0% being no injury and 100% being complete death.
(§13) Transgenic T2 Arabidopsis plants were sprayed with a range of doses from 1.56-25 g/ha of different HPPD-inhibiting herbicides and injury evaluations were taken two weeks after treatment (FIG. 4). As depicted in Table 8, control plants were severely injured by all doses of herbicides applied, with at least 58% of leaf material being damaged at the lowest application rate and 100% leaf damage at the second application rate.

[4] = system: transgenic Arabidopsis plants (T2) SoHPPD I419V (short); assay: Greenhouse spray test, injury evaluation; type: in vivo, Arabidopsis thaliana; conditions: for Injury: 14 DAT
Procedure: as §10, §11, §12, §13

[5] = molecular target: T1, Arabidopsis HPPD (Seq ID: 42) (Arabidopsis thaliana, UniProt P93836); assay: In vitro HPPD activity assay (homogentisic acid by HPLC); type: biochemical; conditions: benchmark enzyme; normalized on Arabidopsis wild-type HPPD
T1 construct: His6; made in house; host or cells: E. coli BL21 (DE3)
T1 sequence (P93836 1-445): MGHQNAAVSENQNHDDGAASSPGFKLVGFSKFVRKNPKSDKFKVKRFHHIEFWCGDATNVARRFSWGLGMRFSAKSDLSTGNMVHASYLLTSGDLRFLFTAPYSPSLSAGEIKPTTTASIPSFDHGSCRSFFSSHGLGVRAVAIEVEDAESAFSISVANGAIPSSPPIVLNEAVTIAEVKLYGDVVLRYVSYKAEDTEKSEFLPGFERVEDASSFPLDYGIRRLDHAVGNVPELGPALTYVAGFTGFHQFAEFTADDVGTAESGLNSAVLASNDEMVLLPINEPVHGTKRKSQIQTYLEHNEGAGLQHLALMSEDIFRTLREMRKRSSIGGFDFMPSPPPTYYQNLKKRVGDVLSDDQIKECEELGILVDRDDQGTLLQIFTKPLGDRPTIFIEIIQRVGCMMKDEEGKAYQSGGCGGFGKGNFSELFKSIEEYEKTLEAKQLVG
Procedure: as §1, §2, §3, §4, §5
as §6, with “Thus, final inhibitor concentrations range from 5 μM to 320 pM, respectively.” left out
as §7, with “Apparent kcat values are calculated from Vmax assuming 100% purity of the enzyme preparation.” left out, “experiments.” for “experiments. The Cheng-Prusoff equation for competitive inhibition (Cheng, Y. C.; Prusoff, W. H. Biochem Pharmacol 1973, 22, 3099-3108) is used to calculate dissociation constants (Ki).”
as §8, §9

Scenedesmus Short HPPD (Seq ID: 4), sequence (A0A383WMN4 entry or part of it N195D/DEL398-433): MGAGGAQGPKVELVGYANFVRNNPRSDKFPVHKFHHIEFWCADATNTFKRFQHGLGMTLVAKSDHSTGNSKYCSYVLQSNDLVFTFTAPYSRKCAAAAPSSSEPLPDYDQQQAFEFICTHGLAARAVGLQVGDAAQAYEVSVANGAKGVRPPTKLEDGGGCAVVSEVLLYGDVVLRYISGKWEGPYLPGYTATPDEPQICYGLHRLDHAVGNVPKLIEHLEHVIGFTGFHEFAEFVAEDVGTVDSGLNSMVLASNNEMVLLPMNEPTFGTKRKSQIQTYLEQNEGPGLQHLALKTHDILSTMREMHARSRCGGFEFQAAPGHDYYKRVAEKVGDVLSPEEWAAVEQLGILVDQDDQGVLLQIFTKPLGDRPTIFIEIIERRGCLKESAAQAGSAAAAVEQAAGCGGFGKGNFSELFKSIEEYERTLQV
Scenedesmus HPPD (Seq ID: 2), sequence (A0A383WMN4 entry or part of it N195D): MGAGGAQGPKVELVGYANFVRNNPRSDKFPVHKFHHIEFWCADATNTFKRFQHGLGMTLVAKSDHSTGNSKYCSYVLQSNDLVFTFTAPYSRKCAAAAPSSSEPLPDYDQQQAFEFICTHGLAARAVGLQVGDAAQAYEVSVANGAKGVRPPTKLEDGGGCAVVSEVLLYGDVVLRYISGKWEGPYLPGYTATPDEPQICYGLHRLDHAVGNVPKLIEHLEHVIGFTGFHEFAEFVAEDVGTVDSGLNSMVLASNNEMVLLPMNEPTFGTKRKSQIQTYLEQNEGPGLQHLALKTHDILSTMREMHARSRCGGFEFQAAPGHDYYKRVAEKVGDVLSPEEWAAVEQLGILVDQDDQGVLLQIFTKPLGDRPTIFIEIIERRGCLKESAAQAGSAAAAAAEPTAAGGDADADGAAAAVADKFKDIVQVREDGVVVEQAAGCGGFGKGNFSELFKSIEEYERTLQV

Structure (SMILES)	Ki [1] [µM]	Ki [2] [µM]	leaf material being damaged ([3]; 25 g/ha)	leaf damage [3]	Injury ([4]; Event G, 1.56 g ai/ha) [%]	Injury ([4]; Event G, 6.25 g ai/ha) [%]	Injury ([4]; Event G, 25 g ai/ha) [%]	Injury ([4]; Event H, 1.56 g ai/ha) [%]	Injury ([4]; Event H, 6.25 g ai/ha) [%]	Injury ([4]; Event H, 25 g ai/ha) [%]	TI (normalized tolerance index) [5]	TI (normalized tolerance index) [1]	TI (normalized tolerance index) [2]	average injury rate ([4]; 25 g ai/ha, average of events) [%]
Cc1c(C(=O)c2cnn(C)c2O)ccc(S(C)(=O)=O)c1C1=NOCC1 [Inhibitor 1, [3-(4,5-dihydroisoxazol-3-yl)-2-methyl-4-methylsulfonyl-phenyl]-(5-hydroxy-1-methyl-pyrazol-4-yl)methanone]	0.011	0.046	less than 20%	0-8%	5	8	13	0	0	13				
CS(=O)(=O)c1ccc(C(=O)C2C(=O)CCCC2=O)c([N+](=O)[O-])c1 [Inhibitor 2, 2-(4-methylsulfonyl-2-nitro-benzoyl)cyclohexane-1,3-dione]				did not show leaf injury	0	0	95	5	8	58	1.0	0.5	0.0	75
CCS(=O)(=O)c1cc(C(F)(F)F)ccc1C1=C(O)c2ncccc2C(C)(C)S1(=O)=O [Inhibitor 4, 7-[2-ethylsulfonyl-4-(trifluoromethyl)phenyl]-5,5-dimethyl-6,6-dioxo-thiopyrano[4,3-b]pyridin-8-ol]											1.0	0.1	1.4	
CC(=O)N(C)c1c(Cl)ccc(C2=C(O)c3ncccc3C(C)(C)S2(=O)=O)c1Cl [Inhibitor 5, N-[2,6-dichloro-3-(8-hydroxy-5,5-dimethyl-6,6-dioxo-thiopyrano[4,3-b]pyridin-7-yl)phenyl]-N-methyl-acetamide]											1.0	0.0	1.3	
CCSc1ccc(Cl)c(C(=O)Nc2nnnn2C)c1Cl [Inhibitor 8, 2,6-dichloro-3-ethylsulfanyl-N-(1-methyltetrazol-5-yl)benzamide]											1.0	0.1	0.9	

From patent publication US11248234B2, “Herbicide-resistant hydroxyphenylpyruvate dioxygenases” (BASF SE, priority 2015, dated 2022)
